Assay results published in patent US11618747B2, “LXR modulators with bicyclic core moiety” (OrsoBio, Inc., priority 2018, dated 2023).
Like-named read-outs stand apart in the source and are kept apart here.

Legend:
full length (FL) LXRα = biological target: T1, full length (FL) LXRα (Homo sapiens, UniProt Q13133); test: LXR Gal4 reporter transient transfection assay (FL-M2H Gal4α); type: cell-based; conditions: HEK293 cells
T1 construct: the full length (FL) proteins of LXRα (amino acids 1-447); NP005684; expressed in transfected cells; host or cells: HEK293
T1 sequence (Q13133 1-447): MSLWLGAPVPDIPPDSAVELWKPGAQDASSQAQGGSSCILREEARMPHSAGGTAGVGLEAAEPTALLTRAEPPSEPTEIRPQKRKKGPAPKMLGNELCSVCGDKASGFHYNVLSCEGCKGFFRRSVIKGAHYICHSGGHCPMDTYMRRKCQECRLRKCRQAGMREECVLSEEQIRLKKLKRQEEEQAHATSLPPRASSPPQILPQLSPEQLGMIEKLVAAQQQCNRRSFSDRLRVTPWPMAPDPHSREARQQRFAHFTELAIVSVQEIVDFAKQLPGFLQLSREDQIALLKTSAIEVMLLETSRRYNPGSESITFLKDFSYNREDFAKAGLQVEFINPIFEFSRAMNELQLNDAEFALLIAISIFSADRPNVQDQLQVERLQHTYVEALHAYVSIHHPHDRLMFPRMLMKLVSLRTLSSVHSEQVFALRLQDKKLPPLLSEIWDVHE
Outline: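 Mammalian two-hybrid in HEK293 cells transiently transfected with NFkB-AD-fused FL or LBD LXR plus GAL4-BD-fused SRC1 or NCoR cofactor domains and GAL4-responsive firefly luciferase reporter, Renilla-normalized. Compound added 4 h post-transfection (≤0.2% DMSO), 16 h incubation, luminescence read.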

[1] = Short term HFD mouse model: plasma and liver exposure; type: in vivo, mice (C57BL/6J); conditions: HFD mice, 4 h after last dose
Protocol: Short Term HFD Mouse Model:
The in vivo transcriptional regulation of several LXR target genes by LXR modulators was assessed in mice.
For this, C57BL/6J were purchased from Elevage Janvier (Rennes, France) at the age of 8 weeks. After an acclimation period of two weeks, animals were preferred on a high fat diet (HFD) (Ssniff Spezialdiäten GmbH, Germany, Surwit EF D12330 mod, Cat. No. E15771-34), with 60 kcal % from fat plus 1% (w/w) extra cholesterol (Sigma-Aldrich, St. Louis, Mo.) for 5 days. Animals were maintained on this diet during treatment with LXR modulators. The test compounds were formulated in 0.5% hydroxypropylmethylcellulose (HPMC) and administered in three doses (from 1.5 to 20 mg/kg each) by oral gavage according to the following schedule: on day one, animals received treatment in the morning and the evening (ca. 17:00), on day two animals received the final treatment in the morning after a 4 h fast and were sacrificed 4 h thereafter. Animal work was conducted according to the national guidelines for animal care in Germany.
Upon termination, liver was collected, dipped in ice cold PBS for 30 seconds and cut into appropriate pieces. Pieces were snap frozen in liquid nitrogen and stored at −80° C. For the clinical chemistry analysis from plasma, alanine aminotransferase (ALT, IU/mL), cholesterol (CHOL, mg/dL) and triglycerides (TG, mg/dL) were determined using a fully-automated bench top analyzer (Respons®910, DiaSys Greiner GmbH, Flacht, Germany) with system kits provided by the manufacturer.

[2] = full length LXRα, read-out: FL-M2H Gal4α (EC50 range)

SMILES | EC50 (full length (FL) LXRα; [2]) | liver exposure 4 h ([1]; three oral doses of 20 mg/kg) | liver/plasma ratio 4 h ([1]; three oral doses of 20 mg/kg) | plasma exposure 4 h ([1]; three oral doses of 20 mg/kg) | liver exposure 4 h ([1]; three oral doses of 10 mg/kg) | liver/plasma ratio 4 h ([1]; three oral doses of 10 mg/kg) | plasma exposure 4 h ([1]; three oral doses of 10 mg/kg) | FL-M2H Gal4α efficacy (value in brackets) (full length (FL) LXRα) | EC50 (full length (FL) LXRα; read-out: FL-M2H Gal4α potency)
Cc1ccc(S(=O)(=O)n2c(-c3cccc(N4CC(C(=O)O)C4)c3)c(-c3ccsc3C#N)c3cc(F)ccc32)cc1 [3/32] | 100 to 1000 nM | – | – | – | – | – | – | – | –
Cc1ccc(S(=O)(=O)n2c(-c3cccc(N4CC(C(=O)O)C4)c3)c(-c3ccsc3C#N)c3cc(F)c(F)cc32)cc1 [3/42] | 100 to 1000 nM | – | – | – | – | – | – | – | –
Cc1ccc(S(=O)(=O)n2c(-c3cccc(N4CC(C(=O)O)C4)c3)c(-c3ccsc3C#N)c3cc(F)c(Cl)cc32)cc1 [3/43] | 100 to 1000 nM | – | – | – | – | – | – | – | –
Cc1ccc(S(=O)(=O)n2c(-c3cccc(N4CC(C(=O)O)C4)c3)c(-c3ccsc3C#N)c3cc(Cl)ccc32)cc1 [3/44] | < 100 nM | – | – | – | – | – | – | – | –
Cc1ccc(S(=O)(=O)n2c(-c3cccc(N4CC(C(=O)O)C4)c3)c(-c3ccsc3C#N)c3cc(C)ccc32)cc1 [3/46] | < 100 nM | – | – | – | – | – | – | – | –
O=C(O)c1ccc(-c2cccc(-c3c(-c4ccccc4C4COC4)c4cc(F)ccc4n3S(=O)(=O)c3ccc(C(F)F)cc3)c2)c(Cl)c1 [3/59] | < 100 nM | C (1 μM to ≤10 μM) | B (5 to ≤30) | C (C: 100 nM to <300 nM) | – | – | – | – | –
Cc1ccc(S(=O)(=O)n2c(-c3cccc(C45CCC(C(=O)O)(CC4)CC5)c3)c(-c3ccsc3C#N)c3cc(F)ccc32)cc1 [3/64] | < 100 nM | D (>10 μM) | D (>100) | C (C: 100 nM to <300 nM) | – | – | – | – | –
N#Cc1cccc(C#N)c1-c1c(-c2cccc(-c3c(F)cc(CC(=O)O)cc3F)c2)n(S(=O)(=O)c2ccc(C(F)F)cc2)c2ccc(F)cc12 [3/73] | < 100 nM | – | – | – | B (300 nM to ≤1 μM) | C (30 to ≤100) | D (D: <100 nM) | – | –
CC(=O)NS(=O)(=O)c1ccc(-c2cccc(-c3c(-c4c(C#N)cccc4C#N)c4cc(F)ccc4n3S(=O)(=O)c3ccc(C(F)F)cc3)c2)c(Cl)c1 [8/8] | < 100 nM | – | – | – | B (300 nM to ≤1 μM) | B (5 to ≤30) | C (C: 100 nM to <300 nM) | – | –
N#Cc1cccc(C#N)c1-c1c(-c2cccc(-c3ccc(C(=O)NCCS(=O)(=O)O)cc3Cl)c2)n(S(=O)(=O)c2ccc(C(F)F)cc2)c2ccc(F)cc12 [10/1] | < 100 nM | – | – | – | B (300 nM to ≤1 μM) | C (30 to ≤100) | D (D: <100 nM) | – | –
CN(CCS(=O)(=O)O)C(=O)c1ccc(-c2cccc(-c3c(-c4c(C#N)cccc4C#N)c4cc(F)ccc4n3S(=O)(=O)c3ccc(C(F)F)cc3)c2)c(Cl)c1 [10/2] | < 100 nM | – | – | – | D (>10 μM) | B (5 to ≤30) | D (D: <100 nM) | – | –
N#Cc1nccnc1-c1c(-c2cccc(-c3cc(F)c(C(=O)O)cc3Cl)c2)n(S(=O)(=O)c2ccc(C(F)F)cc2)c2ccc(F)cc12 [11/11] | < 100 nM | D (>10 μM) | D (>100) | D (D: <100 nM) | – | – | – | – | –
N#Cc1cccc(C#N)c1-c1c(-c2cccc(-c3ccc(C(=O)O)cc3Cl)c2)n(S(=O)(=O)c2ccc(C(F)F)cc2)c2ccc(F)cc12 [11/12] | < 100 nM | C (1 μM to ≤10 μM) | C (30 to ≤100) | D (D: <100 nM) | – | – | – | – | –
O=C(O)c1ccc(-c2cccc(-c3c(-c4c(Cl)cccc4Cl)c4cc(F)ccc4n3S(=O)(=O)c3ccc(C(F)F)cc3)c2)c(Cl)c1 [11/13] | < 100 nM | C (1 μM to ≤10 μM) | A (<5) | A (A: >1 μM) | – | – | – | – | –
N#Cc1sccc1-c1c(-c2cccc(-c3ccc(C(=O)O)cc3Cl)c2)n(S(=O)(=O)c2ccc(C(F)(F)F)nc2)c2ccc(F)cc12 [11/16] | < 100 nM | C (1 μM to ≤10 μM) | B (5 to ≤30) | C (C: 100 nM to <300 nM) | – | – | – | – | –
O=C(O)c1ccc(-c2cccc(-c3c(-c4ncccc4C(F)(F)F)c4cc(F)ccc4n3S(=O)(=O)c3ccc(C(F)F)cc3)c2)c(Cl)c1 [11/23] | < 100 nM | C (1 μM to ≤10 μM) | B (5 to ≤30) | C (C: 100 nM to <300 nM) | – | – | – | – | –
N#Cc1cccnc1-c1c(-c2cccc(-c3ccc(C(=O)O)cc3Cl)c2)n(S(=O)(=O)c2ccc(C(F)F)cc2)c2ccc(F)cc12 [11/26] | < 100 nM | – | – | – | C (1 μM to ≤10 μM) | C (30 to ≤100) | C (C: 100 nM to <300 nM) | – | –
COc1c(C(=O)O)ccc(-c2cccc(-c3c(-c4ccccc4C#N)c4cc(F)ccc4n3S(=O)(=O)c3ccc(C(F)F)cc3)c2)c1Cl [11/27] | < 100 nM | C (1 μM to ≤10 μM) | C (30 to ≤100) | D (D: <100 nM) | – | – | – | – | –
N#Cc1ccccc1-c1c(-c2cccc(-c3ccc(C(=O)O)cc3Cl)c2)n(S(=O)(=O)c2ccc(C(F)F)cc2)c2ccc(F)cc12 [11/33] | < 100 nM | C (1 μM to ≤10 μM) | C (30 to ≤100) | C (C: 100 nM to <300 nM) | – | – | – | 164% | 1.3 nM
N#Cc1cccc(C#N)c1-c1c(-c2cccc(-c3ccc(C(=O)O)cc3Cl)c2)n(S(=O)(=O)c2ccc(C(F)(F)F)nc2)c2ccc(F)cc12 [11/37] | < 100 nM | – | – | – | C (1 μM to ≤10 μM) | C (30 to ≤100) | D (D: <100 nM) | – | –
N#Cc1ccccc1-c1c(-c2cccc(-c3ccc(C(=O)O)cc3Cl)c2)n(S(=O)(=O)c2ccc(C(F)F)cc2)c2cnccc12 [11/49] | < 100 nM | C (1 μM to ≤10 μM) | D (>100) | D (D: <100 nM) | – | – | – | – | –
N#Cc1cccc(C#N)c1-c1c(-c2cccc(-c3ccc(C(=O)O)cc3F)c2)n(S(=O)(=O)c2ccc(C(F)F)cc2)c2ccc(F)cc12 [11/51] | < 100 nM | – | – | – | C (1 μM to ≤10 μM) | C (30 to ≤100) | D (D: <100 nM) | – | –
N#Cc1cccc(C#N)c1-c1c(-c2cccc(-c3c(F)cc(C(=O)O)cc3F)c2)n(S(=O)(=O)c2ccc(C(F)F)cc2)c2ccc(F)cc12 [11/53] | < 100 nM | – | – | – | C (1 μM to ≤10 μM) | C (30 to ≤100) | D (D: <100 nM) | – | –
N#Cc1cccc(C#N)c1-c1c(-c2cccc(-c3ccc(C(=O)O)cc3Cl)c2)n(S(=O)(=O)C2CCC(F)(F)CC2)c2ccc(F)cc12 [11/63] | < 100 nM | – | – | – | C (1 μM to ≤10 μM) | B (5 to ≤30) | D (D: <100 nM) | – | –
N#Cc1cccc(C#N)c1-c1c(-c2cccc(-c3cc(F)c(C(=O)O)cc3Cl)c2)n(S(=O)(=O)c2ccc(C(F)F)cc2)c2ccc(F)cc12 [11/65] | < 100 nM | – | – | – | C (1 μM to ≤10 μM) | C (30 to ≤100) | D (D: <100 nM) | – | –
N#Cc1cccc(C#N)c1-c1c(-c2cccc(-c3ccc(C(=O)NCC(=O)O)cc3Cl)c2)n(S(=O)(=O)c2ccc(C(F)F)cc2)c2ccc(F)cc12 [21/3] | < 100 nM | – | – | – | C (1 μM to ≤10 μM) | D (>100) | D (D: <100 nM) | – | –
